Reference: ChEMBL document CHEMBL1201862, “PubChem BioAssay data set” (2004)
Calls of active or inactive are those of the source.

Key:
[1] = target: Voltage-gated inwardly rectifying potassium channel KCNH2 (Homo sapiens, UniProt Q12809); conditions: Potency;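 further: confirmatory quantitative high-throughput screen measuring inhibition of hERG channel activity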
[2] = luciferase reporter signal suppression in cells – H4 neuroglioma cells, luminescence, dose response (AID 1990); assay type: functional, cell-based
[3] = target: T1, RNA-binding protein pos-1 (Caenorhabditis elegans, UniProt G5EF15); assay: disruptors of C. elegans POS-1 RNA interaction – biochemical, fluorescence polarization, dose response (AID 1964);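 further: purified POS-1 fused to maltose binding protein made in E. coli; potency of compounds blocking POS-1 binding to fluorescent RNA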
T1 sequence (G5EF15 whole entry): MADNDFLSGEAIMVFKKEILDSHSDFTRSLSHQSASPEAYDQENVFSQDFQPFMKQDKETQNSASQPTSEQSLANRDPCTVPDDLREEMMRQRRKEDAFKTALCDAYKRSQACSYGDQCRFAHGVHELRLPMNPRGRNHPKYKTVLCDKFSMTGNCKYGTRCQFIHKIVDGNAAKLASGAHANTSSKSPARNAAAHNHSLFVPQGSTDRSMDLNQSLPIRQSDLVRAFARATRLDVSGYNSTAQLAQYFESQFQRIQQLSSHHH

[4] = Luminescence Cell-Based Dose Response HTS to Identify Inhibitors of 5'UTR Stem-Loop Driven Prion Protein mRNA Translation in H4 Neuroglioblastoma Cells. [Related pubchem assays: 1827 (Project Summary), 1813 (Primary HTS)]; assay type: functional
[5] = target: T2, Zinc finger protein mex-5 (Caenorhabditis elegans, UniProt Q9XUB2); assay: potency of MEX-5 RNA-binding blockers – biochemical, C. elegans, fluorescence polarization, dose response (AID 1960)
T2 sequence (Q9XUB2 whole entry): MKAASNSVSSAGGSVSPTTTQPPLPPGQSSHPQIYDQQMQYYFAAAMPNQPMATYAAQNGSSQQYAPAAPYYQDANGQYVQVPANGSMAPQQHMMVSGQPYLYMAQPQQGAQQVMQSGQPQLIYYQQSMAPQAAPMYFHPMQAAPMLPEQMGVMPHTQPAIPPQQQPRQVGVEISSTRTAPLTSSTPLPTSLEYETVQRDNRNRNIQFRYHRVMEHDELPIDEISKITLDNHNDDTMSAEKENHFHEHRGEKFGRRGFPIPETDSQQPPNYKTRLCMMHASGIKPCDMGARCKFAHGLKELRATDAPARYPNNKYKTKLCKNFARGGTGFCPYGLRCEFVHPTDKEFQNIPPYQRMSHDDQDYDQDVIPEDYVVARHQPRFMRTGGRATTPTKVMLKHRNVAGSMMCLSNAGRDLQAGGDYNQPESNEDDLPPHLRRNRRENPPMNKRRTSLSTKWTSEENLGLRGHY

[6] = alpha-synuclein stem-loop luciferase translation blockers – H4 neuroglioma cells, luminescence, confirmation (AID 1988); assay type: functional, cell-based
Large T antigen = Large T antigen (Simian virus 40, UniProt P03070); assay type: functional, Betapolyomavirus macacae;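 further: Confirmatory-stage PubChem screen for compounds that inhibit SV40 T antigen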
Sequence of Large T antigen (P03070 whole entry): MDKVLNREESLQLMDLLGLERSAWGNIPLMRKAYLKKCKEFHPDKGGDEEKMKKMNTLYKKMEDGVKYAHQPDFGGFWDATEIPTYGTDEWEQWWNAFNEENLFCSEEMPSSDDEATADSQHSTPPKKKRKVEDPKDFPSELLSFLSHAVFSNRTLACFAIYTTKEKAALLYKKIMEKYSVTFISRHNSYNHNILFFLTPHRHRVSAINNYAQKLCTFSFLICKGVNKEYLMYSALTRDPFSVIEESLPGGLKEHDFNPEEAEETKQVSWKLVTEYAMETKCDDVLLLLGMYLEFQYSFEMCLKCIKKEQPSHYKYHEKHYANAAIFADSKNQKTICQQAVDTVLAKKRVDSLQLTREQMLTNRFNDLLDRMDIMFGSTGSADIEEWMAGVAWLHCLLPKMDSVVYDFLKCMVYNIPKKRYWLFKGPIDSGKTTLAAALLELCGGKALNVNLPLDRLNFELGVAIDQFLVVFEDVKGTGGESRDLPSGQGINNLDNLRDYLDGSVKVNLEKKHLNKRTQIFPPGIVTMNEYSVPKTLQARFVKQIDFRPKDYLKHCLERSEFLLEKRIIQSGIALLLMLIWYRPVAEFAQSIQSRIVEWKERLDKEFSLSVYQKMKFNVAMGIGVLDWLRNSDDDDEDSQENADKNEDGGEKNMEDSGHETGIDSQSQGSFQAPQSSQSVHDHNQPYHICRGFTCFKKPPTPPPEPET

CAAX prenyl protease 2 = target: T3, CAAX prenyl protease 2 (Saccharomyces cerevisiae S288c, UniProt Q03530); assay type: biochemical
T3 sequence (Q03530 whole entry): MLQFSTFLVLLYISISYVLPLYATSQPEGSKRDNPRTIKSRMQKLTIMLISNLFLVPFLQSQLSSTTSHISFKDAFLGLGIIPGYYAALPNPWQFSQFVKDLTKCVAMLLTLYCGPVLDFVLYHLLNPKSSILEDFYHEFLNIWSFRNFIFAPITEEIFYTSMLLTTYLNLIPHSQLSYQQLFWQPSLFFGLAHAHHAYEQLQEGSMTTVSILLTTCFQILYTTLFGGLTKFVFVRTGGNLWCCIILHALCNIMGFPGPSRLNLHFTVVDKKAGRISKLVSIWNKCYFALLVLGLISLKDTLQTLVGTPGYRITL

[7] = target: FAD-linked sulfhydryl oxidase ALR (Homo sapiens, UniProt P55789); assay: ALR-catalysed DTT oxidation blockers – biochemical, H2O2 detection, luminescence, cherry-pick, dose response (AID 493248)
Sequence of FAD-linked sulfhydryl oxidase ALR (P55789 whole entry): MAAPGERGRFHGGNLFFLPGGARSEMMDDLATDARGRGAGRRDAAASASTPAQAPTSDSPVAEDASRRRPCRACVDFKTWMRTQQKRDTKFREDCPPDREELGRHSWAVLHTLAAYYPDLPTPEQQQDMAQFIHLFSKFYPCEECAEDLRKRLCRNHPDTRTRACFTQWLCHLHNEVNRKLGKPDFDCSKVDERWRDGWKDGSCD

Hexokinase HKDC1 = target: T4, Hexokinase HKDC1 (Homo sapiens, UniProt Q2TB90); assay: inhibition of HKDC1 glucose phosphorylation – biochemical, W721R variant, dose response (AID 504729); assay type: functional
T4 sequence (Q2TB90 whole entry): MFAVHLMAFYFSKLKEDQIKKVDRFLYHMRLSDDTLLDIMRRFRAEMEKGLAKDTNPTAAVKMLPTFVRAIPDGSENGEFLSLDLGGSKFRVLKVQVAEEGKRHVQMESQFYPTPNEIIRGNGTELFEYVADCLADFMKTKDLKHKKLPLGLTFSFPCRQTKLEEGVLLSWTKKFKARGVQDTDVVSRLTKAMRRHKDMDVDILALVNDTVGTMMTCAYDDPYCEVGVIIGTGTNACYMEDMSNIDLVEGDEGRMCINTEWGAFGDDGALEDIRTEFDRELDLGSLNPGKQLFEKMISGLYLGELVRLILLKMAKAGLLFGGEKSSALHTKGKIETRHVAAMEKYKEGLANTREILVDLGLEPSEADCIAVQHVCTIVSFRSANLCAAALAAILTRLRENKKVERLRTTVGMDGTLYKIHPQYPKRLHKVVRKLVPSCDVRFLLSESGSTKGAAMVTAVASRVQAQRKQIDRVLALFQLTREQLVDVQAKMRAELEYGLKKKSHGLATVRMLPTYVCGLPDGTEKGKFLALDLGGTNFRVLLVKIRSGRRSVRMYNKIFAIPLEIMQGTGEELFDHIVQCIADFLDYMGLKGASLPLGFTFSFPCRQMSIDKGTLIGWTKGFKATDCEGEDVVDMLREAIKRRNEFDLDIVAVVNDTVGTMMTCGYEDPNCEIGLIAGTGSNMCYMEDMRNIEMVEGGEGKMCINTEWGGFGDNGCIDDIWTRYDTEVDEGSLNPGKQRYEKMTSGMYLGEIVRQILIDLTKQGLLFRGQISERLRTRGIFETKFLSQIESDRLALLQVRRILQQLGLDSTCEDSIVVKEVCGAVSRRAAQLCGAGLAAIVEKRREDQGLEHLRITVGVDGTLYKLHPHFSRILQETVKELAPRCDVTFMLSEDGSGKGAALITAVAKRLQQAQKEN

[8] = toxicity toward cultured mammalian cells – cell-based, plate reader, cherry-pick samples, cytotoxicity control, dose response (AID 504397); assay type: functional
Protein RecA = target: T5, Protein RecA (Mycobacterium tuberculosis, UniProt P9WHJ3); assay: Fluorescence Cell-Free Homogeneous Dose Retest to Identify Inhibitors of RecA-Intein Splicing Activity. [Related pubchem assays (depositor defined):AID2097, AID2223, AID489010, AID492950]; assay type: functional
T5 sequence (P9WHJ3 whole entry): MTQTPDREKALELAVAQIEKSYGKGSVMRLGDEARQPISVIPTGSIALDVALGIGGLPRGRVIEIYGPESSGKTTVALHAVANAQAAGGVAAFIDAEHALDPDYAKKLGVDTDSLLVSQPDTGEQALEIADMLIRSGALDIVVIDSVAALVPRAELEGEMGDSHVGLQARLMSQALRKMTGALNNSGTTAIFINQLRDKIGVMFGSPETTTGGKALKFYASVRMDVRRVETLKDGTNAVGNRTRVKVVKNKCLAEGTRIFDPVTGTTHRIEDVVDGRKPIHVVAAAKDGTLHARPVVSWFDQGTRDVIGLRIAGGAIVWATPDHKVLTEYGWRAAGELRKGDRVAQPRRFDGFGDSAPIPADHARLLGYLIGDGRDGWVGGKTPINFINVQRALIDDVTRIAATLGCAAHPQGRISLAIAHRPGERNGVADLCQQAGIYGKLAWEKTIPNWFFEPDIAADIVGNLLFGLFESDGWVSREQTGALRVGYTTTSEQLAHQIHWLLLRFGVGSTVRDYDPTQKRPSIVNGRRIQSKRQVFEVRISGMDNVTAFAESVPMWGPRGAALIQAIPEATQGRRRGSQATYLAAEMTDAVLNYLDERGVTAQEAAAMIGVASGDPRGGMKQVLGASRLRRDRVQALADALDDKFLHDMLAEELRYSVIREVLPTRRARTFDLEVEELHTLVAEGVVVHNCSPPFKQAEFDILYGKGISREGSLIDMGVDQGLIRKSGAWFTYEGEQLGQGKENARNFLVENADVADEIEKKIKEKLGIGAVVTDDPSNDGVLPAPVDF

[9] = target: Dual specificity tyrosine-phosphorylation-regulated kinase 1A (Rattus norvegicus, UniProt Q63470); assay type: biochemical, Homo sapiens
[10] = target: Envelope glycoprotein gp160 (Human immunodeficiency virus 1, UniProt Q6QLK5); assay: cell-free HIV fusion peptide-binding blockers – biochemical, uHTS, fluorescence dequenching, […] (AID 1986)
Sequence of Envelope glycoprotein gp160 (Q6QLK5 whole entry, the tested form may be a part): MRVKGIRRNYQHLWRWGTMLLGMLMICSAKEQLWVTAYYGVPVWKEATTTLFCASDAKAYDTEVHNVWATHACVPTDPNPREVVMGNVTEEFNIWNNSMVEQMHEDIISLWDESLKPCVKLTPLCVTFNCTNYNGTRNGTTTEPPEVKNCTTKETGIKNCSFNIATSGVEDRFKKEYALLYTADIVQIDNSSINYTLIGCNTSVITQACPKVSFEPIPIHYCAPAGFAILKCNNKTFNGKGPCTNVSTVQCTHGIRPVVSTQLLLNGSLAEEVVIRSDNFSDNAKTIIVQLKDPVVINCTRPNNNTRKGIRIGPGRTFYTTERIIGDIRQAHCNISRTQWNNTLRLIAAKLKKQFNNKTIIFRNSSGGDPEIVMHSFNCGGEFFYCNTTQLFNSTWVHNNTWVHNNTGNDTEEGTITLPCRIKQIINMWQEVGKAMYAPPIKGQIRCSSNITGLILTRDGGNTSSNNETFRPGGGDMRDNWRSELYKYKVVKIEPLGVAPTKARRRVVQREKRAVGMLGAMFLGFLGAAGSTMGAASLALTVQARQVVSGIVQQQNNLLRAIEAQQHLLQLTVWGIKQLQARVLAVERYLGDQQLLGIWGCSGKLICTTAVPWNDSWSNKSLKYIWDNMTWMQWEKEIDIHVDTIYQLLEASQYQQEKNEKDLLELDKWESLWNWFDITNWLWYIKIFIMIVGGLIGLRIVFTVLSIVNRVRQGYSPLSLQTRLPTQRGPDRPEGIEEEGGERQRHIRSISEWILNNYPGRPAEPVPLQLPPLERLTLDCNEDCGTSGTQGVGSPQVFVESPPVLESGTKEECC

[11] = CCR5-tropic HIV-1 fusion blockers – cell-based, CCR5-tropic Env, dose response (AID 2279); assay type: functional
Cysteine protease ATG4B = Cysteine protease ATG4B (Homo sapiens, UniProt Q9Y4P1); assay type: functional;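 further: Fluorescence-based dose-response confirmation assay measuring inhibition of ATG4B activity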
Sequence of Cysteine protease ATG4B (Q9Y4P1 whole entry): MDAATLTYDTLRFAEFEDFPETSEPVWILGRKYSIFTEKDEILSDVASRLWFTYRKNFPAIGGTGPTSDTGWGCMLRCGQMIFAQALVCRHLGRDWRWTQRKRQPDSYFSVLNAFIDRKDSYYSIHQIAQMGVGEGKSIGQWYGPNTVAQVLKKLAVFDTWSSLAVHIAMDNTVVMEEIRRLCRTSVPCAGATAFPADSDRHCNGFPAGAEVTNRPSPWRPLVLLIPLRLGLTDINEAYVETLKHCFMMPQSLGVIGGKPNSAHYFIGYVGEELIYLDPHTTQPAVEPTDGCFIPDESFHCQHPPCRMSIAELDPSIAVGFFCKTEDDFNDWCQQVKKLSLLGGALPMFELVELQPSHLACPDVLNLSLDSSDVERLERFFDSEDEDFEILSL

Phospholipase A2 = Phospholipase A2 (Homo sapiens, UniProt P04054); assay type: functional;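 further: confirmatory dose-response counterscreen on phospholipase A2, testing hits that came from an ultra-high-throughput screen for ATG4B inhibitors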
Sequence of Phospholipase A2 (P04054 whole entry, the tested form may be a part): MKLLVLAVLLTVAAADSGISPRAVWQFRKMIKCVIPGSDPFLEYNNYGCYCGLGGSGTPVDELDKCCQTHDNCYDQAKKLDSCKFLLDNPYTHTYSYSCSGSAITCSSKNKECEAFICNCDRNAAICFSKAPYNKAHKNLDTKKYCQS

[12] = target: T6, Carboxy-terminal domain RNA polymerase II polypeptide A small phosphatase 1 (Homo sapiens, UniProt Q9GZU7); assay: CTDSP1 inhibitors, concentration-response, biochemical, absorbance readout, ultra-high-throughput screen actives (AID 540297); assay type: functional
T6 sequence (Q9GZU7 whole entry): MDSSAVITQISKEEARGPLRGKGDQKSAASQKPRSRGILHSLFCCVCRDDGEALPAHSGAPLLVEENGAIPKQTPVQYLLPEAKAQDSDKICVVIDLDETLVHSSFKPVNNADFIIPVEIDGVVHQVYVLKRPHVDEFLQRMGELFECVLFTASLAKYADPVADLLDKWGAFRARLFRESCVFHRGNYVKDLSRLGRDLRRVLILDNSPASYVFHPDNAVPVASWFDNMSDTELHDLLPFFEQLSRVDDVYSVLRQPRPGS

[13] = target: Glycogen synthase kinase-3 alpha (Homo sapiens, UniProt P49840); assay: Inhibition of Human GSK-3 alpha Activity Measured in Biochemical System Using Microfluidics - 2063-06_Inhibitor_Dose_DryPowder_Activity. [Related pubchem assays (depositor defined):AID2709]
Sequence of Glycogen synthase kinase-3 alpha (P49840 whole entry): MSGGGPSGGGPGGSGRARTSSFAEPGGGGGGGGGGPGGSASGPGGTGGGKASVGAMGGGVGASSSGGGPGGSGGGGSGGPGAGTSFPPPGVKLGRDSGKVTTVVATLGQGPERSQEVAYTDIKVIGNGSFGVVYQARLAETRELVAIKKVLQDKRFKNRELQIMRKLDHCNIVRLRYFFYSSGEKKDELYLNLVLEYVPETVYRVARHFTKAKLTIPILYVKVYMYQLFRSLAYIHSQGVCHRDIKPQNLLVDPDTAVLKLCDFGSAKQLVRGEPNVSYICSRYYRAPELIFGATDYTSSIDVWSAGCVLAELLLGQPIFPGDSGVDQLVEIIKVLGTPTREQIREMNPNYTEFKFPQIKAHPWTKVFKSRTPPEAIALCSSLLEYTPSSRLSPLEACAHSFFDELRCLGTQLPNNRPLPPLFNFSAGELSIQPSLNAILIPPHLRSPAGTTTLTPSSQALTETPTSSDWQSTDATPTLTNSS

[14] = target: Glycogen synthase kinase-3 beta (Homo sapiens, UniProt P49841); assay: Inhibition of Human GSK-3 beta Activity Measured in Biochemical System Using Microfluidics - 2063-05_Inhibitor_Dose_DryPowder_Activity. [Related pubchem assays (depositor defined):AID2709]
Sequence of Glycogen synthase kinase-3 beta (P49841 whole entry): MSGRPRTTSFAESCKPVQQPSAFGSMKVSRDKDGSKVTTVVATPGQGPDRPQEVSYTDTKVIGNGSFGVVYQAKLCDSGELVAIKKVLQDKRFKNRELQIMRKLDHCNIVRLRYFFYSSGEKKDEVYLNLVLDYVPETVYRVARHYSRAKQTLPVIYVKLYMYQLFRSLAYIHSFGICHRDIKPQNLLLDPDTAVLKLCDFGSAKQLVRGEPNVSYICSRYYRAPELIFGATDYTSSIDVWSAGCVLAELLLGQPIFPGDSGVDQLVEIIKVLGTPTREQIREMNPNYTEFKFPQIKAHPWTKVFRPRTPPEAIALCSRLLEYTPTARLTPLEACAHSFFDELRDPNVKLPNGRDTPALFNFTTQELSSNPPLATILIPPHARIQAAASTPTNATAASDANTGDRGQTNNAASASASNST

[15] = target: Heat shock protein HSP 90-alpha (Homo sapiens, UniProt P07900); assay: Luminescence-based dose response biochemical high throughput screening assay for inhibitors of the Heat Shock Protein 90 (HSP90). [Related pubchem assays: 1831 (Summary AID.), 1846 (Confirmation screen.), 1789 (Primary screen.)]
[16] = target: Beta-adrenergic receptor kinase 1 (Homo sapiens, UniProt P25098); assay: aptamer displacement from bead-bound GRK2 – biochemical, cherry pick 1, bead flow cytometry, dose response (AID 504500)
Protein skinhead-1 = target: T7, Protein skinhead-1 (Caenorhabditis elegans, UniProt P34707); assay type: functional
T7 sequence (P34707 whole entry): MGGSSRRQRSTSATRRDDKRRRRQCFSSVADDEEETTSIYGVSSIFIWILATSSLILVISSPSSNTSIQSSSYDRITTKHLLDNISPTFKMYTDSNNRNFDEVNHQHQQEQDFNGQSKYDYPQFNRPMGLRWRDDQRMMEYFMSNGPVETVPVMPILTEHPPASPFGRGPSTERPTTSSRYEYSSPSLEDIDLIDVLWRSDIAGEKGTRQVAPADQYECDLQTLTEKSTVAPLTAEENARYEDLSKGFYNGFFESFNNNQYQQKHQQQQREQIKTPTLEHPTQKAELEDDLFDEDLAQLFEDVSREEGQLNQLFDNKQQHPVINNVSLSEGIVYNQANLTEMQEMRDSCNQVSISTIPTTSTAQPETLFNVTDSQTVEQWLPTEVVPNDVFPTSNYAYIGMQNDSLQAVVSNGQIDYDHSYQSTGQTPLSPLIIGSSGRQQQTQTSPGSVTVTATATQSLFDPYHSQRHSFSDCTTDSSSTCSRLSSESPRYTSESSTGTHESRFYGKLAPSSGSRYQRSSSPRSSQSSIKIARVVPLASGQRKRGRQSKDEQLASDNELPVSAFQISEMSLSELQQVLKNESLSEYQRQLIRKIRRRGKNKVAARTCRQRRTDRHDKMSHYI

[17] = target: T8, Beta-2 adrenergic receptor (Homo sapiens, UniProt P07550); assay: ADRB2 activation measured by internalization – cell-based, FAP fluorogen, flow cytometry, cherry pick 1, dose response (AID 588763); assay type: functional
T8 sequence (P07550 whole entry): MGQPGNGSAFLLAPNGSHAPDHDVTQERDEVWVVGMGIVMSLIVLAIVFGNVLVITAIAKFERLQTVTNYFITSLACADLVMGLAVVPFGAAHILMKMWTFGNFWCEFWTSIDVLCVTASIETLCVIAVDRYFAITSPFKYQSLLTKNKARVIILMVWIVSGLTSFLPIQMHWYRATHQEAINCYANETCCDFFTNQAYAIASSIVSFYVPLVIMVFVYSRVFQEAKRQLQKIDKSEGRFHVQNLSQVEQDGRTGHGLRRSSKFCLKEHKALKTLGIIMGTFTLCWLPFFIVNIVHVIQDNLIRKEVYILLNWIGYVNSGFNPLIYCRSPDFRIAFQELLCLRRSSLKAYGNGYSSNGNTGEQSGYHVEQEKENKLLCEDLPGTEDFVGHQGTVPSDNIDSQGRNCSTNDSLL

[18] = target: T8, Beta-2 adrenergic receptor; assay: Dose response for HTS for Beta-2AR agonists via FAP method from Powderset3.; assay type: functional

Sequence of Voltage-gated inwardly rectifying potassium channel KCNH2 (Q12809 whole entry): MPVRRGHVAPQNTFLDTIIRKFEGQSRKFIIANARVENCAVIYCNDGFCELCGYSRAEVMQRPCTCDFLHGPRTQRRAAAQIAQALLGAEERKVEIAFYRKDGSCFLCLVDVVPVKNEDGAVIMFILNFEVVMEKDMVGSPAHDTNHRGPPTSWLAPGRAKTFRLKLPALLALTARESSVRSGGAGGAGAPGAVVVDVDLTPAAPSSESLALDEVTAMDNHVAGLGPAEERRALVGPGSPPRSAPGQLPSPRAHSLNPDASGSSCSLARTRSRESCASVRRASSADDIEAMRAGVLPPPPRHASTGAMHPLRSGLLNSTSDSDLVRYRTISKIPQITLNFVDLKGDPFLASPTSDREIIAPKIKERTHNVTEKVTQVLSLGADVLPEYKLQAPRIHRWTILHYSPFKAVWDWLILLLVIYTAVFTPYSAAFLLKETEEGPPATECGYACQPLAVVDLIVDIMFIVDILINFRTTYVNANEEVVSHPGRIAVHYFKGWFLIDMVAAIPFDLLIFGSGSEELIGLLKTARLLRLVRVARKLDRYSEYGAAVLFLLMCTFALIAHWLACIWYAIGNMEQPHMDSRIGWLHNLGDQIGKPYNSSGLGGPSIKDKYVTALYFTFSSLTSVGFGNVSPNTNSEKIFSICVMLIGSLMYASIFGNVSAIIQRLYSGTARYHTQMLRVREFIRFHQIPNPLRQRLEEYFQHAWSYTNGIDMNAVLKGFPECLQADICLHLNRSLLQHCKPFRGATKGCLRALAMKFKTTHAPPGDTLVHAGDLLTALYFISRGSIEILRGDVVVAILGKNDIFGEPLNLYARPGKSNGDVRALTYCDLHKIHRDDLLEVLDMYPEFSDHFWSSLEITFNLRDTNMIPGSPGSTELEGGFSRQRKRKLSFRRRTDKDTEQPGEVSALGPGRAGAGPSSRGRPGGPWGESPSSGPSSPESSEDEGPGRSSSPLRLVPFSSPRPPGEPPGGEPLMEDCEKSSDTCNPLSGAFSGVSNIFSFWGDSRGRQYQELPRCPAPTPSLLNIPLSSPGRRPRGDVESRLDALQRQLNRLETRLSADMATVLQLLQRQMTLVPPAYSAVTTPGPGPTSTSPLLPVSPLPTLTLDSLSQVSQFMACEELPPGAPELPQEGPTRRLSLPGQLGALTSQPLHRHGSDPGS

SMILES: CC(=O)O[C@]1(C(C)=O)CC[C@H]2[C@@H]3C=C(Cl)C4=CC(=O)[C@@H]5C[C@H]5[C@]4(C)[C@H]3CC[C@@]21C
- AC50 [1]: 35.5 µM (inconclusive)

SMILES: CN1c2ccc(C=O)c3c(C=O)ccc(c23)N(C)C1(C)C
- EC50 [2]: 17.8 µM (active)
- EC50 [3]: 74 µM (inconclusive)
- EC50 [4]: 15.9 µM (active)
- EC50 [5]: 5.37 µM (inconclusive)
- EC50 [6]: > 120 µM (not active)
- IC50 (Large T antigen): 23 µM (active)
- AC50 (CAAX prenyl protease 2): 10.5 µM (active)
- AC50 [7]: 1.54 µM (active)
- IC50 (Hexokinase HKDC1): 13.1 µM (active)
- AC50 [8]: 45.7 µM (active)
- EC50 (Protein RecA): 59.9 µM (inconclusive)
- AC50 [9]: 0.199 µM (active)

SMILES: CCOc1cc(/C=C2\SC(=O)N(CC(=O)Nc3ccccc3F)C2=O)cc([N+](=O)[O-])c1O
- IC50 [10]: 26.9 µM (active)
- IC50 [11]: 43.6 µM (active)
- IC50 (Cysteine protease ATG4B): 9.16 µM (active)
- IC50 (Phospholipase A2): 7.23 µM (active)
- IC50 [12]: 9.89 µM (active)

SMILES: COC(=O)c1ccc(CSc2nnc(-c3ccncc3)o2)cc1
- AC50 [13]: 1.67 µM (active)
- AC50 [14]: 0.395 µM (active)

SMILES: Cc1cc2ccccc2n1CCNC(=O)c1cccs1
- IC50 [15]: 4.57 µM (active)
- EC50 [16]: 3.5 µM (active)
- IC50 (Protein skinhead-1): > 100 µM (inactive)

SMILES: Cc1ccc(NC(=O)C(c2ccc(Cl)cc2)N2CCOCC2)cc1 (stereo not given)
- EC50 [17]: 2.18 µM (active)
- EC50 [18]: 1.51 µM (active)
